Test system: Hs578T complex spheroid growth, percent test/control
Assay: Anticancer human tumor Hs578T cell line growth inhibition [AhR];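 note: luminescent viability signal as a proxy for spheroid growth; spheroids exposed to agents for one week after three days of growth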
Conditions: for IC50: curve of first compound; for viability, T/C: stronger effect = lower value
Summary of the method: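 Complex tumor spheroids co-cultured with HUVEC and human MSC stroma; AhR antagonists tested in combination with standard-of-care and investigational agents. Top concentration at or near clinical Cmax (else 10 microM), half-log dilutions; growth expressed as percent test/control.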

[1] = second compound 0.1 µM, first compound 0.0316 µM
[2] = second compound 0.1 µM, first compound 0.1 µM
[3] = second compound 0.1 µM, first compound 0.316 µM
[4] = second compound 0.1 µM, first compound 1 µM
[5] = second compound 0.1 µM, first compound 3.16 µM
[6] = second compound 0.1 µM, first compound 10 µM
[7] = second compound 0.316 µM, first compound 0.0316 µM
[8] = second compound 0.316 µM, first compound 0.1 µM
[9] = second compound 0.316 µM, first compound 0.316 µM
[10] = second compound 0.316 µM, first compound 1 µM
[11] = second compound 0.316 µM, first compound 3.16 µM
[12] = second compound 0.316 µM, first compound 10 µM
[13] = second compound 1 µM, first compound 0.0316 µM
[14] = second compound 1 µM, first compound 0.1 µM
[15] = second compound 1 µM, first compound 0.316 µM
[16] = second compound 1 µM, first compound 1 µM
[17] = second compound 1 µM, first compound 3.16 µM
[18] = second compound 1 µM, first compound 10 µM
[19] = second compound 3.16 µM, first compound 0.0316 µM
[20] = second compound 3.16 µM, first compound 0.1 µM
[21] = second compound 3.16 µM, first compound 0.316 µM
[22] = second compound 3.16 µM, first compound 1 µM
[23] = second compound 3.16 µM, first compound 3.16 µM
[24] = second compound 3.16 µM, first compound 10 µM
[25] = second compound 10 µM, first compound 0.0316 µM
[26] = second compound 10 µM, first compound 0.1 µM
[27] = second compound 10 µM, first compound 0.316 µM
[28] = second compound 10 µM, first compound 1 µM
[29] = second compound 10 µM, first compound 3.16 µM
[30] = second compound 10 µM, first compound 10 µM

IC50 (second compound 0.1 µM)	IC50 (second compound 0.316 µM)	IC50 (second compound 1 µM)	IC50 (second compound 3.16 µM)	IC50 (second compound 10 µM)	Compound	viability, T/C [1]	viability, T/C [2]	viability, T/C [3]	viability, T/C [4]	viability, T/C [5]	viability, T/C [6]	viability, T/C [7]	viability, T/C [8]	viability, T/C [9]	viability, T/C [10]	viability, T/C [11]	viability, T/C [12]	viability, T/C [13]	viability, T/C [14]	viability, T/C [15]	other results
> 10 µM	> 10 µM	> 10 µM	1.86 µM	< 0.0316 µM	COc1cc(C2c3cc4c(cc3C(OC3OC5COC(C)OC5C(O)C3O)C3COC(=O)C23)OCO4)cc(OC)c1O (stereo not given) + Cc1cncc(-c2nc(NCCc3c[nH]c4ccccc34)c3ncn(C(C)C)c3n2)c1	108%	101%	89%	80.7%	88.5%	63.9%	108%	101%	94.3%	77%	76.9%	61.3%	96.9%	101%	93%	viability, T/C [16]: 85.8%; viability, T/C [17]: 73.2%; viability, T/C [18]: 63%; viability, T/C [19]: 64%; viability, T/C [20]: 64.1%; viability, T/C [21]: 61.5%; viability, T/C [22]: 49%; viability, T/C [23]: 49.3%; viability, T/C [24]: 37.8%; viability, T/C [25]: 6.72%; viability, T/C [26]: 7.12%; viability, T/C [27]: 5.72%; viability, T/C [28]: 3.77%; viability, T/C [29]: 4.01%; viability, T/C [30]: 4.25%
> 10 µM	> 10 µM	> 10 µM	> 10 µM	< 0.0316 µM	CC1(C)CCC(CN2CCN(c3ccc(C(=O)NS(=O)(=O)c4ccc(NCC5CCOCC5)c([N+](=O)[O-])c4)c(Oc4cnc5[nH]ccc5c4)c3)CC2)=C(c2ccc(Cl)cc2)C1 + Cc1cncc(-c2nc(NCCc3c[nH]c4ccccc34)c3ncn(C(C)C)c3n2)c1	117%	118%	115%	94.8%	95.9%	82.6%	117%	118%	112%	109%	105%	97.4%	113%	111%	109%	viability, T/C [16]: 108%; viability, T/C [17]: 111%; viability, T/C [18]: 92.8%; viability, T/C [19]: 49.6%; viability, T/C [20]: 65.6%; viability, T/C [21]: 65.5%; viability, T/C [22]: 56.4%; viability, T/C [23]: 69.2%; viability, T/C [24]: 75.2%; viability, T/C [25]: 3.98%; viability, T/C [26]: 3.8%; viability, T/C [27]: 4.95%; viability, T/C [28]: 5.32%; viability, T/C [29]: 4.95%; viability, T/C [30]: 8.06%

Source: PubChem BioAssay AID1919010 (Molecular Pharmacology Branch, DTP, NCI, 2023)
